Data taken from ChEMBL document CHEMBL5576135, “Discovery of Indolo[3,2-c]isoquinoline Derivatives as Novel Top1/2 Dual Inhibitors with Orally Efficacious Antitumor Activity and Low Toxicity” (J Med Chem, 2024).
The source made the active and inactive calls. The rule behind the calls is not given here.

How the values were obtained:
[1] = test system: HCT-116; experiment: Antiproliferative activity against human HCT-116 cells assessed as inhibition of cell growth incubated for 96 hrs by MTT based ELISA; format: functional; settings: HCT-116, 96 h
[2] = test system: NCI-H2228; experiment: Antiproliferative activity against human NCI-H2228 cells assessed as inhibition of cell growth incubated for 96 hrs by MTT based ELISA; format: functional; settings: NCI-H2228, 96 h
[3] = biological target: T1, DNA topoisomerase 1 (Homo sapiens) (UniProt P11387); experiment: Inhibition of Topoisomerase I (unknown origin) using pBR322 DNA as substrate at 10 uM incubated for 15 mins by EtBr staining based agarose gel electrophoresis method
T1 sequence (whole entry): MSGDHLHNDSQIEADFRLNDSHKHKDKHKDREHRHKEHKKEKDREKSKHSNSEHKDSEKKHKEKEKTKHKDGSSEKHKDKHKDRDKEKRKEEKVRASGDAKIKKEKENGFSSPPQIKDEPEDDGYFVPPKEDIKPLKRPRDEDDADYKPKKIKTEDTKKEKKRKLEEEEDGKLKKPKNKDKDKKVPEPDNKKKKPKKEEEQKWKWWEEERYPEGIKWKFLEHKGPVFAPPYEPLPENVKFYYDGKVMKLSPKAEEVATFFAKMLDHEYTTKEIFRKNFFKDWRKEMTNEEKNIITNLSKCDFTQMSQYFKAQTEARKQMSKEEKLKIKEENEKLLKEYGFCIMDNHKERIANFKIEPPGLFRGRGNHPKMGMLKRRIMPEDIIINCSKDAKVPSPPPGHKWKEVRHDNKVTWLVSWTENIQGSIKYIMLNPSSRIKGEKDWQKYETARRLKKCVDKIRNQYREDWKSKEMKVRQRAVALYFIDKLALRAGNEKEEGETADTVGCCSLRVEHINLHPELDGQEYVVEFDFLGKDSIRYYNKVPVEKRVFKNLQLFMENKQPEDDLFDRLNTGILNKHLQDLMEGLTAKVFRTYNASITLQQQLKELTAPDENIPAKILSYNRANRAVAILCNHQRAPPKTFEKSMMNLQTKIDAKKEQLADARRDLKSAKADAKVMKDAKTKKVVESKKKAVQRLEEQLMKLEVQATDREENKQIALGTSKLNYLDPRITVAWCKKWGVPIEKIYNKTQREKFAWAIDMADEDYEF

[4] = biological target: DNA topoisomerase 2-alpha (Homo sapiens) (UniProt P11388); experiment: Inhibition of Topoisomerase 2 (unknown origin) using pBR322 DNA as substrate at 50 uM incubated for 15 mins by EtBr staining based agarose gel electrophoresis method
[5] = biological target: T1, DNA topoisomerase 1 (Homo sapiens); experiment: Inhibition of Topoisomerase I (unknown origin) using pBR322 DNA as substrate at 200 uM incubated for 15 mins by EtBr staining based agarose gel electrophoresis method relative to control
[6] = test system: MDA-MB-231; experiment: Antiproliferative activity against human MDA-MB-231 cells assessed as inhibition of cell growth incubated for 96 hrs by MTT based ELISA; format: functional; settings: MDA-MB-231, 96 h
[7] = test system: PC-3; experiment: Antiproliferative activity against human PC-3 cells assessed as inhibition of cell growth incubated for 96 hrs by MTT based ELISA; format: functional; settings: PC-3, 96 h
[8] = test system: MCF7; experiment: Antiproliferative activity against human MCF7 cells assessed as inhibition of cell growth incubated for 96 hrs by MTT based ELISA; format: functional; settings: MCF7, 96 h
[9] = test system: Huh-7; experiment: Antiproliferative activity against human Huh-7 cells assessed as inhibition of cell growth incubated for 96 hrs by MTT based ELISA; format: functional; settings: Huh-7, 96 h
[10] = biological target: DNA topoisomerase 2-alpha (Homo sapiens) (UniProt P11388); experiment: Inhibition of Topoisomerase 2 (unknown origin) using pBR322 DNA as substrate at 100 uM incubated for 15 mins by EtBr staining based agarose gel electrophoresis method relative to control
[11] = biological target: T1, DNA topoisomerase 1 (Homo sapiens); experiment: Inhibition of Topoisomerase I (unknown origin) using pBR322 DNA as substrate at 50 uM incubated for 15 mins by EtBr staining based agarose gel electrophoresis method

DNA topoisomerase 2-alpha (Homo sapiens), sequence (P11388 whole entry): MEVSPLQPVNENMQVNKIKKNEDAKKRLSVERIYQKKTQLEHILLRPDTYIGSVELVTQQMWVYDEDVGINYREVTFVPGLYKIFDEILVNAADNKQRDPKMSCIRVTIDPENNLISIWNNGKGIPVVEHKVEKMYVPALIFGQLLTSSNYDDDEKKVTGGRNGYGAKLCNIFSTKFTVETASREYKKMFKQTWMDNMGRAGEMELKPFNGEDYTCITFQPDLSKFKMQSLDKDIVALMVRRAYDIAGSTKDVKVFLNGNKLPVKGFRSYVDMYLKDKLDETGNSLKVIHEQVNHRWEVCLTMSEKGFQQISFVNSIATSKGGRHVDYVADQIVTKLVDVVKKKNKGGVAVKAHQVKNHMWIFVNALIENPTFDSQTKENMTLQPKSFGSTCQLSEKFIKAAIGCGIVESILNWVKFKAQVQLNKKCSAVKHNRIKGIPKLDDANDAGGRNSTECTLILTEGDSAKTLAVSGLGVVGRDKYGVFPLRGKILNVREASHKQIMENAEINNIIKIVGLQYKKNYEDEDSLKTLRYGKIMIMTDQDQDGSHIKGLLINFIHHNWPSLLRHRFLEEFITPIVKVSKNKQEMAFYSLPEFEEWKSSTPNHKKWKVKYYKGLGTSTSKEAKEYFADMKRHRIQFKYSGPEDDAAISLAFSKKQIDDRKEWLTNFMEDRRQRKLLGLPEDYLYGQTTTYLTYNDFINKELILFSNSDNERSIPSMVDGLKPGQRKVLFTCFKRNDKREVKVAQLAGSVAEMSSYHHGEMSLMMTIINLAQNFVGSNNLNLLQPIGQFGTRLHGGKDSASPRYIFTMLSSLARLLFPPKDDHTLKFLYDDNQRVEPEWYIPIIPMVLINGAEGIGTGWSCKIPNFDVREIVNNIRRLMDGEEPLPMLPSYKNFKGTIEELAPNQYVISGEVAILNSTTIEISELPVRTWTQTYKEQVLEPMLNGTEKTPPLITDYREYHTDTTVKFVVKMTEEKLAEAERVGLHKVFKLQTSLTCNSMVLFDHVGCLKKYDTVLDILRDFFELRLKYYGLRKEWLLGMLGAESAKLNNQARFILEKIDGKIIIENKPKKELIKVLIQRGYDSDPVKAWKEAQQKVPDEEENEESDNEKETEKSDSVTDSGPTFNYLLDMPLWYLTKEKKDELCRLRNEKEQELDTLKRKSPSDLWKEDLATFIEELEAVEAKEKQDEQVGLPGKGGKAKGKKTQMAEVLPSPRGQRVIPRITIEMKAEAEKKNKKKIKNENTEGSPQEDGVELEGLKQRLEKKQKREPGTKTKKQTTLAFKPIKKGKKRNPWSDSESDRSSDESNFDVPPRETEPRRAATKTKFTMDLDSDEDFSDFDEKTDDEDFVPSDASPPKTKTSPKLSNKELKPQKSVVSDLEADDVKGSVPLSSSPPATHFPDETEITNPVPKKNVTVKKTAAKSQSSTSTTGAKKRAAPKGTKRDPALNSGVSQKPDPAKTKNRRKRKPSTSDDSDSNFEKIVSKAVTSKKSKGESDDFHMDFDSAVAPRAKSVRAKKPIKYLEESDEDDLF

Row | IC50 [1] [nM] | IC50 [2] [nM] | inhibition [3] | inhibition [4] | inhibition [5] [%] | IC50 [6] [nM] | IC50 [7] [nM] | IC50 [8] [nM] | IC50 [9] [nM] | inhibition [10] [%] | inhibition [11] | SMILES
1 | 740 | 2390 | Active | Active | > 95 | 980 | 1660 | 1510 | 2980 | > 95 | Active | COc1ccc2c(c1)c1nc(Cl)c3ccccc3c1n2CCCC(=O)NO
2 | 220 | 1160 | Active | Active | > 95 | 480 | 630 | 600 | 1240 | > 95 | Active | CN(C)CCCn1c2cc3c(cc2c2[nH]c(=O)c4ccccc4c21)OCO3
3 | 260 | 960 | Active | Active | > 95 | 560 | 470 | 370 | 940 | > 95 | Active | CN(C)CCCn1c2cc3c(cc2c2nc(Cl)c4ccccc4c21)OCO3
4 | 1320 | 3070 | Active | Active | > 95 | 950 | 1550 | 2320 | 2890 | > 95 | Active | O=C(CCCn1c2cc3c(cc2c2ncc4ccccc4c21)OCO3)NO
